Tests used:
Assay type in all cases: cell-based, human
[1] = target: PPARγ LBD, sensor 110PPARγ383 (UniProt P37231+P9WHJ3, V318L)
[2] = target: PPARγ LBD, sensor 100PPARγ383 (UniProt P37231+P9WHJ3, V318L)
[3] = target: PPARγ LBD, sensor 94PPARγ403 (UniProt P37231+P9WHJ3, V318L)
[4] = target: PPARγ LBD, sensor 110PPARγ_3GS_403 (UniProt P37231+P9WHJ3, V318L)
[5] = target: PPARγ LBD, sensor 94_1GS_PPARγ_1GS_403 (UniProt P37231+P9WHJ3, V318L)
[6] = target: PPARγ LBD, sensor 110PPARγ393 (UniProt P37231+P9WHJ3, V318L)
[7] = target: PPARγ LBD, sensor 110PPARγ_3GS_383 (UniProt P37231+P9WHJ3, V318L)

**Q.** With `O=C(Nc1ccccc1)c1cc([N+](=O)[O-])ccc1Cl` [GW9662] as the compound, how does the “effect on cell growth” value [1] read?
**A.** Its value is “inhibited cell growth”.

**Q.** What about the IC50 ([1]; read-out: IC50 for antagonism) of the same compound?
**A.** The IC50 was 1.8 ± 1.2 µM.

**Q.** What about the “effect on cell growth” value [2] of the same compound?
**A.** The value was “inhibitory effect”.

**Q.** What about the “effect on cell growth” value [3] of the same compound?
**A.** Its value is “strong positive responses”.

**Q.** And the EC50 [4]?
**A.** The EC50 was 1.1 ± 0.2 µM.

**Q.** And the EC50 [5]?
**A.** The EC50 was 0.5 ± 0.1 µM.

**Q.** What about the “effect on cell growth” value [6] of the same compound?
**A.** The value was “increased cell growth substantially”.

**Q.** What about the “effect on cell growth” value [7] of the same compound?
**A.** The value was “weak positive response”.

**Q.** Which “effect on cell growth” value [1] does the source give for `C[C@]12CC[C@@H]3c4ccc(O)cc4CC[C@H]3[C@@H]1CC[C@@H]2O` [E2, 17β-estradiol] here?
**A.** The value was “no significant effect”.

**Q.** What does the source list for `CCCCC/C=C/C=C1/C(=O)C=C[C@@H]1C/C=C\CCCC(=O)O` [15D-PGJ2, 15-deoxy-Δ^12,14-Prostaglandin J2]?
**A.** EC50 [1]: could not be calculated; effect on cell growth [1]: didn't induce a significant cell growth signal; effect on cell growth [2]: significant response; EC50 [4]: could not be calculated; effect on cell growth [5]: strongest observed response; effect on cell growth [6]: almost no effect

From article PMC3215401 (Biosensors & bioelectronics, 2011)
